Assay results from ChEMBL document CHEMBL1201862, “PubChem BioAssay data set” (2004).
Activity calls are given as the source filed them.

Assays:
[1] = tested on: INS1; experiment: beta cell apoptosis inhibitors, cytokine rescue, dose response, luminescence, retest (AID 449756); format: functional, cell-based; conditions: Rattus norvegicus;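 further: cell death triggered by IL-1 beta plus TNF-alpha plus IFN-gamma mixture; protective hits raise ATP signal compared with cytokine alone wells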
[2] = HepG2 cell cytotoxicity, dose response, cytotoxicity control for Shn3 inhibitor project, CellTiter-Glo, cherry-picked (AID 624134); format: functional, cell-based
[3] = control 3'UTR Renilla luciferase suppression, dose response, counter-screen for Shn3 inhibitor project, cell-based, Clone20-Shn3RL, cherry-picked (AID 624133); format: functional
[4] = Shn3 3'UTR reporter inhibitors, dose response, cell-based, Clone20 osteoblasts, firefly luciferase, cherry-picked (AID 624132); format: functional;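 further: firefly luciferase luminescence from reporter carrying the Shn3 3'UTR in osteoblasts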
[5] = target: T1, Polyadenylate-binding protein 1 (Homo sapiens, UniProt P11940); experiment: PABP1 MLLE–PAM2 binding inhibitor potency, dose response, biochemical, fluorescence polarization, FITC-PAM2 peptide (AID 602259); format: functional; conditions: read-out: IC50_Mean
T1 sequence (P11940 whole entry): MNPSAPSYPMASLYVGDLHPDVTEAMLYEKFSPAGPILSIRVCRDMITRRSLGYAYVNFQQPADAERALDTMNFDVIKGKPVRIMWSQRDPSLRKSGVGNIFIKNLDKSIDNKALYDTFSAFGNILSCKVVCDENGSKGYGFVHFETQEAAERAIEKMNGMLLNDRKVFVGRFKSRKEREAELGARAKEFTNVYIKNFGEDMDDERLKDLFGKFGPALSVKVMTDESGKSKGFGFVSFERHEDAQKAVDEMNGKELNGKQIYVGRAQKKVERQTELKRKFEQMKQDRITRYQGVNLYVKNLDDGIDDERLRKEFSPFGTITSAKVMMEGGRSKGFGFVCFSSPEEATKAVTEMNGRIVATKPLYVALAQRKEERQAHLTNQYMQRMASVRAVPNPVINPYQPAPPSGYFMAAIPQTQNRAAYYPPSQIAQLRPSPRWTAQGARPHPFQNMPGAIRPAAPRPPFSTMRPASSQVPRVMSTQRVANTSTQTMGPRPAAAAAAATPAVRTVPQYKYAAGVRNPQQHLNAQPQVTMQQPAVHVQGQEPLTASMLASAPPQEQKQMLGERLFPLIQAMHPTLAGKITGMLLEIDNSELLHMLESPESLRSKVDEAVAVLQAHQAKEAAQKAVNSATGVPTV

[6] = target: T1, Polyadenylate-binding protein 1; experiment: PABP1 MLLE–PAM2 interaction inhibitors, dose response, miRNA deadenylation inhibitor project, biochemical, fluorescence polarization, Cy5-PAM2 peptide, secondary (AID 602260); format: functional; conditions: read-out: IC50_Mean
[7] = growth suppression of beta-catenin-knockout colon cells, dose response, cell-based, HCT116, human colon tumor (AID 1045); format: functional;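 further: HCT116 colon tumor cells with beta catenin knocked out; cells exposed to compound for 60 hours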
[8] = growth suppression of PTEN-null colon cells, dose response, cell-based, HCT116 PTEN knockout (AID 1047); format: functional;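 further: HCT116 colon tumor cells with PTEN knocked out; cells exposed to compound for 60 hours before readout; potency for loss of cell viability measured by luminescence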
[9] = target: T2, Cytochrome P450 1A2 (Homo sapiens, UniProt P05177);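 further: PubChem cytochrome P450 panel assay, CYP1A2 panel member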
T2 sequence (P05177 whole entry): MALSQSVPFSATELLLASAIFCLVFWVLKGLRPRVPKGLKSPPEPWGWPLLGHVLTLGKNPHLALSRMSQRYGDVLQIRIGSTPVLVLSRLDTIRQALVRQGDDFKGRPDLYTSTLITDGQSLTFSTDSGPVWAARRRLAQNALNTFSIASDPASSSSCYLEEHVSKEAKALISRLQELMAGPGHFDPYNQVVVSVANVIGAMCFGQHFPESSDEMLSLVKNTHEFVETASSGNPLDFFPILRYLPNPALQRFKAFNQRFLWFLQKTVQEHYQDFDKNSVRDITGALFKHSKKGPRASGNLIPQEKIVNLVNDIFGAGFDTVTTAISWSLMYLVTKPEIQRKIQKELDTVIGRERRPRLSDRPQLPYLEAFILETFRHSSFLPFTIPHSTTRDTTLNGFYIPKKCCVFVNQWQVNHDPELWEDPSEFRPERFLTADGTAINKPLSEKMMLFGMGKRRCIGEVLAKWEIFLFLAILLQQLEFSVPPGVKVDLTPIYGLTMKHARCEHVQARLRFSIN

[10] = cytotoxicity in HPDE-C7 cells, cell-based, fluorescence, HTS (AID 430); format: functional; conditions: Homo sapiens
[11] = cytotoxicity in KRAS-transformed pancreatic duct cells, primary screen, cell-based, fluorescence, HTS (AID 431); format: functional; conditions: Homo sapiens;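 further: cell line used: HPDE-C7K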
[12] = Luminescence Cell-Based Dose Confirmation HTS to Identify Activators of 5'UTR Stem-Loop Driven Alpha-Synuclein mRNA Translation in H4 Neuroglioblastoma Cells. [Related pubchem assays: 1829 (Project Summary), 1814 (Primary HTS)]; format: functional
[13] = microbe, parasite or virus in culture; format: functional; conditions: Mycobacterium tuberculosis
[14] = tested on: H4; experiment: Luminescence Cell-Based Dose Response HTS to Identify Activators of 5'UTR Stem-Loop Driven Prion Protein mRNA Translation in H4 Neuroglioblastoma Cells. [Related pubchem assays: 1829 (Project Summary), 1814 (Primary HTS)]; format: functional; conditions: Homo sapiens
[15] = Luminescence Cell-Based Dose Response HTS to Identify Activators of Luciferase Translation or Activity in H4 […] Cells. [Related pubchem assays: 1829 (Project Summary), 1814 (Primary HTS)]; format: functional
[16] = Luminescence Cell-Based Dose Retest to Confirm Inhibitors of Cancer Stem Cells. [Related pubchem assays (depositor defined):AID2717, AID2721]; format: functional; conditions: Homo sapiens
[17] = target: Induced myeloid leukemia cell differentiation protein Mcl-1 (Homo sapiens, UniProt Q07820); format: functional
Sequence of Induced myeloid leukemia cell differentiation protein Mcl-1 (Q07820 whole entry): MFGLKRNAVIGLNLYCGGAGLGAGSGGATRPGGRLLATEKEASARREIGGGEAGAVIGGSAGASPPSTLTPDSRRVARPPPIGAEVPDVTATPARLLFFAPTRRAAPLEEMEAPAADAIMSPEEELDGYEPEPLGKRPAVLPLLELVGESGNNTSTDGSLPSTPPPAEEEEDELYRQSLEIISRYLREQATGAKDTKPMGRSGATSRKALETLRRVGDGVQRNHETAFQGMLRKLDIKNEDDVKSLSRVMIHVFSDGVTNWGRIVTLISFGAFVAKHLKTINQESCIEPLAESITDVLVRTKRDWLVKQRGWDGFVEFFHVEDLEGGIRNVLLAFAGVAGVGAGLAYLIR

Compound	AC50 [2]	AC50 [3]	AC50 [4]	IC50 [5]	IC50 [6]	further results
COc1ccccc1/C=C/CN1CCC(n2nccc2NC(=O)CCc2ccccc2)CC1	42.3 µM (active)	4.23 µM (active)	1.91 µM (active)	–	–	AC50 [1]: 5.75 µM (active)
COc1cc(/C=C/C(=O)Nc2nnc(C(C)(C)C)s2)cc(OC)c1OC	–	–	–	> 66 µM (inactive)	> 66 µM (inactive)	–
CCC(Sc1nc2cc3c(cc2c(=O)n1Cc1ccco1)OCO3)C(=O)Nc1cccc(OC)c1 (stereo not given)	–	–	–	–	–	EC50 [7]: 3.68 µM (active); EC50 [8]: 3.73 µM (active); AC50 [9]: 4.47 µM (inconclusive); EC50 [10]: 4.41 µM (active); EC50 [11]: 4.17 µM (active)
CC(=O)c1cc(-c2ccccc2)[nH]c1N1CCOCC1	–	–	–	> 66 µM (inactive)	> 66 µM (inactive)	–
COc1ccc(C2CC(c3cccs3)=Nc3ccccc3S2)cc1 (stereo not given)	–	–	–	> 66 µM (inactive)	> 66 µM (inactive)	EC50 [12]: 7.19 µM (active); CC50 [13]: > 40 µM (active); EC50 [14]: 7.12 µM (active); EC50 [15]: 9.21 µM (active)
Cc1ccc(C)c(S(=O)(=O)N2CCN(c3ncnc4sccc34)CC2)c1	2.55 µM (active)	2.38 µM (active)	0.631 µM (active)	–	–	AC50 [1]: 3.41 µM (active); AC50 [16]: 1.25 µM (active)
CN(CC(=O)Nc1ccccc1Cl)C(=O)c1cccc(S(=O)(=O)N2CCN(Cc3ccccc3)CC2)c1	50.5 µM (active)	4.83 µM (active)	3.47 µM (active)	–	–	–
COc1ccc(Cc2c(C(C)(C)C)nc3c(C)cc(Br)cn23)c(C)c1	–	–	–	52.7 µM (inactive)	> 66 µM (inactive)	–
CC(=O)Nc1sc(N/N=C/c2ccc(O)cc2)nc1-c1ccc(C)cc1	–	–	–	–	–	IC50 [17]: 2.84 µM (active)
